Values joined by “and” are separate entries in the source; they are usually repeats but may differ in a detail not shown here. Equal values may be shown once. Results filed as inconclusive are left out.

The values below come from PubChem BioAssay AID212 (DTP/NCI, 2004).

The experiment has as its system BDF1 mice, colon carcinoma 38 sc, T/C %. Put plainly: NCI In Vivo Anticancer Drug Screen. Data for tumor model Colon Carcinoma 38 (subcutaneous) in B6D2F1 (BDF1) mice. As to conditions: endpoint: median tumor weight (est.), higher = larger tumour. As to the method:
The antitumor activity of compounds was measured in mice bearing transplantable tumors. Survival or tumor size were measured and the results are expressed as the measurement made in the treated group (T) divided by the measurement made in the vehicle treated control group (C). The tumor model used in this assay is Colon Carcinoma 38 (subcutaneous) in B6D2F1 (BDF1) mice

[1] abbreviates: dose: 25.0 mg/kg/injection, schedule: Q07DX002 (ip), vehicle: saline with Tween-80.
The mark [2] stands for this setting: dose: 50.0 mg/kg/injection, schedule: Q07DX002 (ip), vehicle: saline with Tween-80.
Setting [3] is: dose: 100.0 mg/kg/injection, schedule: Q07DX002 (ip), vehicle: saline with Tween-80.
[4] abbreviates: dose: 12.5 mg/kg/injection, schedule: Q07DX002 (ip), vehicle: saline.
Where [5] appears, read: dose: 50.0 mg/kg/injection, schedule: Q07DX002 (ip), vehicle: saline.
The mark [6] stands for this setting: dose: 400.0 mg/kg/injection, schedule: Q07DX002 (ip), vehicle: saline.
Where [7] appears, read: dose: 100.0 mg/kg/injection, schedule: Q07DX002 (ip), vehicle: Klucel (hydroxypropylcellulose) (HPC).
The mark [8] stands for this setting: dose: 200.0 mg/kg/injection, schedule: Q07DX002 (ip), vehicle: Klucel (hydroxypropylcellulose) (HPC).
[9] abbreviates: dose: 400.0 mg/kg/injection, schedule: Q07DX002 (ip), vehicle: Klucel (hydroxypropylcellulose) (HPC).
Where [10] appears, read: dose: 100.0 mg/kg/injection, schedule: Q07DX002 (ip), vehicle: saline.
Where [11] appears, read: dose: 200.0 mg/kg/injection, schedule: Q07DX002 (ip), vehicle: saline.
Setting [12] is: dose: 3.12 mg/kg/injection, schedule: Q07DX002 (ip), vehicle: saline with Tween-80.
Where [13] appears, read: dose: 25.0 mg/kg/injection, schedule: Q07DX002 (ip), vehicle: Klucel (hydroxypropylcellulose) (HPC).
The mark [14] stands for this setting: dose: 50.0 mg/kg/injection, schedule: Q07DX002 (ip), vehicle: Klucel (hydroxypropylcellulose) (HPC).
Setting [15] is: dose: 12.5 mg/kg/injection, schedule: Q07DX002 (ip), vehicle: Klucel (hydroxypropylcellulose) (HPC).

For the compound `CCCCCc1cc(/C=C2/N=C(c3ccc[nH]3)C=C2OC)[nH]c1C`, the T/C (dose: 0.5 mg/kg/injection, schedule: Q07DX002 (ip), vehicle: saline with Tween-80) was 94 % of control; the T/C (dose: 2.0 mg/kg/injection, schedule: Q07DX002 (ip), vehicle: saline with Tween-80) was 163 % of control; the T/C (dose: 4.0 mg/kg/injection, schedule: Q07DX002 (ip), vehicle: saline with Tween-80) was 106 % of control; the T/C (dose: 8.0 mg/kg/injection, schedule: Q07DX002 (ip), vehicle: saline with Tween-80) is 120 % of control; the T/C (dose: 16.0 mg/kg/injection, schedule: Q07DX002 (ip), vehicle: saline with Tween-80) is 108 % of control.
Regarding `N=C(N)CCNC(=O)C1CCC(N)=N1` (stereo not given), the T/C was 97 % of control (dose: 3.38 mg/kg/injection, schedule: Q07DX002 (ip), vehicle: saline); 115 % of control (dose: 6.75 mg/kg/injection, schedule: Q07DX002 (ip), vehicle: saline); 120 % of control (dose: 13.5 mg/kg/injection, schedule: Q07DX002 (ip), vehicle: saline); 91 % of control (dose: 27.0 mg/kg/injection, schedule: Q07DX002 (ip), vehicle: saline).
Turning to `CN=C(N)N/N=C(\C)c1ccc2oc3ccc(/C(C)=N/NC(N)=NC)cc3c2c1`, the T/C by setting is: under setting [1], 117 % of control; under setting [2], 100 % of control; under setting [3], 66 % of control.
Turning to `CC1(C)OC(=O)N(CO)C1=O`, the T/C under setting [4] is 162 % of control; the T/C (dose: 25.0 mg/kg/injection, schedule: Q07DX002 (ip), vehicle: saline) was 94 % of control; the T/C under setting [5] was 120 % of control and 123 % of control; the T/C under setting [6] was 257 % of control.
For `CCCCCC(O)C1C(=O)OC(C)C(O)/C=C/C=C/C=C/C=C\C=C(\C)C(O)CC(O)CC(O)CC(O)CC(O)CC(O)CC1O` (stereo not given), the T/C is, setting by setting: (dose: 2.5 mg/kg/injection, schedule: Q07DX002 (ip), vehicle: saline) 105 % of control; (dose: 5.0 mg/kg/injection, schedule: Q07DX002 (ip), vehicle: saline) 64 % of control; (dose: 20.0 mg/kg/injection, schedule: Q07DX002 (ip), vehicle: saline) 71 % of control.
On to `C=C1C(=O)OC2/C=C(\CO)C(OC(C)=O)CC(O)/C(C)=C/C(OC(=O)C(C)CC)C12` (stereo not given), for which the T/C is 165 % of control under setting [7], 95 % of control under setting [8] and 178 % of control under setting [9].
As to `O=C1CN(CN2CCOCC2)C(=O)CN1CN1CCOCC1`, the T/C under setting [4] is 115 % of control; the T/C under setting [5] was 116 % of control and 107 % of control; the T/C under setting [10] is 115 % of control; the T/C under setting [6] was 50 % of control.
In the case of `C=C(OP(=O)(OC)OC)Sc1ccccc1C`, the T/C is 112 % of control (dose: 0.18 mg/kg/injection, schedule: Q07DX002 (ip), vehicle: Klucel (hydroxypropylcellulose) (HPC)); 59 % of control (dose: 0.37 mg/kg/injection, schedule: Q07DX002 (ip), vehicle: Klucel (hydroxypropylcellulose) (HPC)); 101 % of control (dose: 0.75 mg/kg/injection, schedule: Q07DX002 (ip), vehicle: Klucel (hydroxypropylcellulose) (HPC)); 100 % of control (dose: 1.5 mg/kg/injection, schedule: Q07DX002 (ip), vehicle: Klucel (hydroxypropylcellulose) (HPC)); 122 % of control (dose: 1.56 mg/kg/injection, schedule: Q07DX002 (ip), vehicle: Klucel (hydroxypropylcellulose) (HPC)).
For the compound `CNC=O`, the T/C under setting [11] is 110 % of control; the T/C under setting [6] was 150 % of control; the T/C (dose: 800.0 mg/kg/injection, schedule: Q07DX002 (ip), vehicle: saline) was 55 % of control; the T/C (dose: 1600.0 mg/kg/injection, schedule: Q07DX002 (ip), vehicle: saline) was 75 % of control.
As to `CCc1nc(N)nc(N)c1-c1ccc(Cl)c([N+](=O)[O-])c1`, the T/C runs as follows: under setting [12], 70 % of control; (dose: 6.25 mg/kg/injection, schedule: Q07DX002 (ip), vehicle: saline with Tween-80) 65 % of control and 77 % of control; (dose: 12.5 mg/kg/injection, schedule: Q07DX002 (ip), vehicle: saline with Tween-80) 97 % of control and 103 % of control; under setting [2], 45 % of control and 62 % of control; under setting [3], 52 % of control.
Take `COc1ccc2[nH]c3ccc4cc[n+](CCN5CCC(C6CCN(CC[n+]7ccc8ccc9[nH]c%10ccc(OC)cc%10c9c8c7)CC6)CC5)cc4c3c2c1`: the T/C is 79 % of control under setting [13], 70 % of control under setting [14] and 56 % of control under setting [7].
`CSc1ncnc2c1ncn2C1OC(CO)C(O)C1O` (stereo not given): the T/C runs as follows: (dose: 6.25 mg/kg/injection, schedule: Q07DX002 (ip), vehicle: saline + alcohol) 91 % of control; (dose: 12.5 mg/kg/injection, schedule: Q07DX002 (ip), vehicle: saline + alcohol) 83 % of control; (dose: 25.0 mg/kg/injection, schedule: Q07DX002 (ip), vehicle: saline + alcohol) 150 % of control; (dose: 100.0 mg/kg/injection, schedule: Q07DX002 (ip), vehicle: saline + alcohol) 25 % of control.
Consider `Ic1ncnc2c1ncn2C1CCCO1` (stereo not given), for which the T/C runs as follows: under setting [15], 68 % of control and 70 % of control; under setting [13], 52 % of control and 68 % of control; under setting [7], 56 % of control and 80 % of control; under setting [8], 81 % of control; under setting [9], 55 % of control.
Turning to `c1ccc2c(c1)nnn1c3cnccc3nc21`, the T/C by setting is: under setting [12], 63 % of control and 88 % of control; under setting [1], 82 % of control and 85 % of control.
For `Nc1nc(F)nc2c1ncn2C1OC(COP(=O)(O)O)C(O)C1O` (stereo not given), the T/C was 184 % of control under setting [4]; 87 % of control under setting [5]; 116 % of control and 93 % of control under setting [10]; 82 % of control and 101 % of control under setting [11]; 76 % of control and 83 % of control under setting [6].
Consider `C=C(NC(=O)C(=C)NC(=O)c1csc(C2=NC3c4csc(n4)C4NC(=O)c5csc(n5)C(C(C)(O)C(C)O)NC(=O)C5CSC(=N5)/C(=C/C)NC(=O)C(C(C)O)NC(=O)c5csc(n5)C3(CC2)NC(=O)C(C)NC(=O)C(=C)NC(=O)C(C)NC(=O)C(C(C)CC)NC2C=Cc3c(C(C)O)cc(nc3C2O)C(=O)OC4C)n1)C(N)=O` (stereo not given), for which the T/C by setting is: under setting [15], 70 % of control; under setting [14], 106 % of control; under setting [7], 106 % of control; under setting [8], 110 % of control; under setting [9], 119 % of control; (dose: 400.0 mg/kg/injection, schedule: Q07DX003 (ip), vehicle: Klucel (hydroxypropylcellulose) (HPC)) 119 % of control.
